Source: ChEMBL document CHEMBL1201862, “PubChem BioAssay data set” (2004)
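How tested: cells in 96-well plates exposed to compound for 48 hours at five concentrations. GI50: concentration for 50% inhibition of growth.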 The source made the active and inactive calls. No stated cut-off is given here; in the data, active = GI50 up to about 1.1 µM and inactive = higher. Numbered stars: 1 amine (or outer) side, 2 acyl side, 3 side chain; on linkers, the order of the positions; unused ones are H or OH. Bridge positions count the residues as written; N and C are the ends. Square brackets hold non-standard residues; d marks the D form. Peptide text beside a SMILES is read from it. X58 = COc1c(N[*:1])cccc1C(=O)O[C@H](C(=O)[C@H](C)C(=O)[*:2])C(C)C; X57 = CC(C)C[C@H](C(=O)[*:2])C(C)C(=O)C1CCCN1[*:1]; NMeY = CN[C@@H](Cc1ccc(O)cc1)C(=O)O; Lac = C[C@H](O)C(=O)O

Tests used:
Assay in all cases: NCI anticancer screen, dose series, 48 h
SF-268 = system: SF-268
NCI-H460 = system: NCI-H460
HOP-62 = system: HOP-62
NCI-H226 = system: NCI-H226
K562 = system: K562
786-0 = system: 786-0
LOX IMVI = system: LOX IMVI
DLD-1 = system: DLD-1
SNB-19 = system: SNB-19
RXF 393 = system: RXF 393
SF-539 = system: SF-539
ACHN = system: ACHN
Hs-578T = system: Hs-578T
CAKI-1 = system: CAKI-1
Malme-3M = system: Malme-3M
NCI-H522 = system: NCI-H522
UACC-62 = system: UACC-62
BT-549 = system: BT-549
SK-MEL-5 = system: SK-MEL-5
MDA-N = system: MDA-N

Structure (SMILES)	GI50 (SF-268)	GI50 (NCI-H460)	GI50 (HOP-62)	GI50 (NCI-H226)	GI50 (K562)	GI50 (786-0)	GI50 (LOX IMVI)	GI50 (DLD-1)	GI50 (SNB-19)	GI50 (RXF 393)	GI50 (SF-539)	GI50 (ACHN)	GI50 (Hs-578T)	GI50 (CAKI-1)	GI50 (Malme-3M)	GI50 (NCI-H522)	GI50 (UACC-62)	GI50 (BT-549)	GI50 (SK-MEL-5)	GI50 (MDA-N)
COc1ccc(/C(=C/n2ccnc2)C(O)c2ccc(OC)c(OC)c2)cc1OC (stereo not given)	> 100 µM (inactive)	71.6 µM (inactive)	> 100 µM (inactive)	> 100 µM (inactive)	37.2 µM (inactive)	> 100 µM (inactive)	> 100 µM (inactive)	> 100 µM (inactive)	> 100 µM (inactive)	33.3 µM (inactive)	78 µM (inactive)	–	–	–	–	–	–	–	–	–
C[C@H](C(O)CC(=O)C(C)(C)O)[C@H]1CC[C@@]2(C)[C@@H]3CC[C@H]4C(C)(C)[C@@H](OC5OC(COC6OC(CO)C(O)C(O)C6O)C(O)C(O)C5O)CC[C@]4(C)C3=CC[C@]12C (stereo not given in full)	> 100 µM (inactive)	> 100 µM (inactive)	> 100 µM (inactive)	> 100 µM (inactive)	> 100 µM (inactive)	> 100 µM (inactive)	> 100 µM (inactive)	–	> 100 µM (inactive)	> 100 µM (inactive)	> 100 µM (inactive)	> 100 µM (inactive)	> 100 µM (inactive)	> 100 µM (inactive)	> 100 µM (inactive)	> 100 µM (inactive)	> 100 µM (inactive)	> 100 µM (inactive)	> 100 µM (inactive)	> 100 µM (inactive)
CC(C)(C)OC(=O)NC(CSCc1ccc(C(=O)c2ccccc2)cc1)C(=O)N1CCN(CCCCN2c3ccccc3Sc3cc(N=[N+]=[N-])ccc32)CC1 (stereo not given)	> 100 µM (inactive)	> 100 µM (inactive)	> 100 µM (inactive)	> 100 µM (inactive)	> 100 µM (inactive)	> 100 µM (inactive)	> 100 µM (inactive)	–	> 100 µM (inactive)	> 100 µM (inactive)	> 100 µM (inactive)	> 100 µM (inactive)	> 100 µM (inactive)	> 100 µM (inactive)	> 100 µM (inactive)	> 100 µM (inactive)	> 100 µM (inactive)	> 100 µM (inactive)	> 100 µM (inactive)	> 100 µM (inactive)
C=C1C(=O)O[C@@H]2[C@H]1C[C@@H](O)[C@H](C)[C@@](O)(C(=O)/C=C/C)[C@H]2OC(=O)C(C)CC (stereo not given in full)	15.4 µM (inactive)	28.8 µM (inactive)	21 µM (inactive)	43.4 µM (inactive)	2.28 µM (inactive)	2.61 µM (inactive)	2.93 µM (inactive)	–	> 46.3 µM (inactive)	2.15 µM (inactive)	7.33 µM (inactive)	2.99 µM (inactive)	2.72 µM (inactive)	1.26 µM (inactive)	2 µM (inactive)	1.26 µM (inactive)	15.5 µM (inactive)	5.45 µM (inactive)	7.28 µM (inactive)	3.08 µM (inactive)
COC(=O)C1=CC2CCCC1(O)C(C(C)=O)C2 (stereo not given)	> 21.7 µM (inactive)	> 85.1 µM (inactive)	> 75 µM (inactive)	> 100 µM (inactive)	34 µM (inactive)	20.2 µM (inactive)	16.6 µM (inactive)	–	> 100 µM (inactive)	> 70.1 µM (inactive)	11.6 µM (inactive)	> 100 µM (inactive)	> 100 µM (inactive)	> 100 µM (inactive)	> 100 µM (inactive)	15.5 µM (inactive)	> 94.4 µM (inactive)	> 95.7 µM (inactive)	> 100 µM (inactive)	97.9 µM (inactive)
O=C(O)Cc1cccc2c(=O)c3cccc([N+](=O)[O-])c3oc12	> 100 µM (inactive)	> 100 µM (inactive)	> 100 µM (inactive)	> 100 µM (inactive)	> 100 µM (inactive)	> 100 µM (inactive)	> 100 µM (inactive)	–	> 100 µM (inactive)	> 100 µM (inactive)	> 100 µM (inactive)	> 100 µM (inactive)	> 100 µM (inactive)	> 100 µM (inactive)	> 100 µM (inactive)	> 100 µM (inactive)	> 100 µM (inactive)	> 100 µM (inactive)	> 100 µM (inactive)	> 100 µM (inactive)
COc1ccc(C[C@H]2C(=O)O[C@H](C)[C@H](NC(=O)[C@@H](CC(C)C)C(C)C(=O)C3CCCN3C(=O)[C@H](C)O)C(=O)Nc3cccc(c3OC)C(=O)O[C@@H](C(C)C)C(=O)[C@H](C)C(=O)N[C@@H](CC(C)C)C(=O)N3CCC[C@H]3C(=O)N2C)cc1 (stereo not given in full) (H-[Lac][X57]T[X58]LP[NMeY](Me); ester 3-C)	> 12.5 µM (inactive)	9.02 µM (inactive)	> 12.5 µM (inactive)	7.26 µM (inactive)	0.372 µM (active)	> 12.5 µM (inactive)	9.66 µM (inactive)	–	11 µM (inactive)	> 12.5 µM (inactive)	> 12.5 µM (inactive)	12.2 µM (inactive)	> 12.5 µM (inactive)	> 12.5 µM (inactive)	> 12.5 µM (inactive)	9.82 µM (inactive)	> 12.5 µM (inactive)	> 12.5 µM (inactive)	> 12.5 µM (inactive)	10.1 µM (inactive)
